# Where no end group is shown, it is not given here.
# System: InsB4 T-cell clone
# Assay type: cell-based, human
# Settings: not given
# 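Also: T-cell clone rested overnight in 5% FBS medium, then cultured overnight with peptide titrations, MIP-1β released into supernatant measured by ELISA.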
row,Molecule,EC50 [nM]
1,ALVENQFLL,2200
2,EMLERGLLV,1600
3,FILEGILTV,54
4,FLIEGVLTI,55
5,FLTEWILPL,5800
6,FLVEQVLFA,3300
7,IITEGIMTL,5900
8,IIVEDSLLV,1.1
9,ILIEGILFF,0.92
10,ILIERGLTF,79000
11,ILLENGYLL,600
12,IMYEGLLFV,70
13,ITIERILTI,1800
14,IVLEGAMIV,130
15,LIEERSPLI,6100
16,LILERSPTA,13000
17,LILQGVLTM,2600
18,LLEENSPML,50
19,LLIENFVTG,5600
20,LLIIGGLLF,290
21,LLLERMFLF,1400
22,LLLERYFLA,66

row,Molecule,EC50 [nM]
1,LLVEDLLVL,200
2,LLVEGALTG,640
3,LLVEGAMTV,42
4,LLVENWPLL,2.4
5,LLVERQLVL,6600
6,LMLENLLTF,2200
7,LMLERGFII,950
8,LMVENVPFA,0.052
9,LQVEGAMSV,240
10,LQVENYLPI,27
11,LQVIRILLA,2600
12,LTVEGIFRV,1600
13,LVLEDILLA,1400
14,MIVEGFLLL,59
15,MIVENVPLL,0.17
16,MLIEGVLTV,10
17,MLIERVMST,5600
18,MLVEEGLLV,97
19,MLVEGVLLA,55
20,MLVEWALVA,54
21,MLYENWLLS,1900
22,MQLENGLLL,6.3

# Same assay, conditions: 20 top-scoring fungal peptides, Figure 8; overnight, MIP-1β ELISA; NR = no T-cell response; read-out: EC50 of peptide activation of InsB4
row,Molecule,EC50 [nM]
1,CC(C)C[C@H](NC(=O)[C@H](C)NC(=O)[C@H](CCC(=O)O)NC(=O)[C@@H](NC(=O)[C@H](CC(C)C)NC(=O)[C@@H](N)Cc1c[nH]cn1)C(C)C)C(=O)N[C@@H](Cc1ccc(O)cc1)C(=O)N[C@@H](CC(C)C)C(=O)N[C@H](C(=O)O)C(C)C [reference compound],1100
2,FLLERILIV,960
3,ILVERALFT [top-scoring fungal peptide],> 10000
4,IMLENGPFL [top-scoring fungal peptide],> 10000
5,IQLENSLFA,8900
6,LIIEWIFFL,150
7,LIIEWYLIM,860
8,LILENYMFA,880
9,LLVEDMLLM,390
10,LQLEGQLLL,3900
11,LVVEGSLFV,340
12,MIIEGFLLI,130
13,MLLEGMMIV,110
14,MQVEWILTF,12000

# Same assay, conditions: overnight, MIP-1β ELISA
row,Molecule,agonist activity on InsB4 in words (relative to index HLVEALYLV)
1,"ILLEGILIL [bacterial protein-derived nonamer peptide, Bin 2]",most potent

# Source: publication PMC7058665, “GPU-Accelerated Discovery of Pathogen-Derived Molecular Mimics of a T-Cell Insulin Epitope” (Frontiers in Immunology, 2020)
